In patent US8557796B2, “Substituted 1-oxa-2,8-diaza-spiro [4,5] dec-2-ene derivatives and related treatment methods” (Gruenenthal GmbH, priority 2001, dated 2013):

Tested on: batrachotoxin (BTX) binding site (binding site 2) of the sodium channel
Assay: Bond test on the sodium channel, binding site 2 (BTX bond), [3H]-batrachotoxinin A20 α-benzoate displacement
Details: rat cerebrocortex synaptosomes

SMILES | BTX bond, 10 μM, % inhibition [%]
Cc1ccc(F)cc1S(=O)(=O)N1CCC2(CC1)CC(C(=O)NCc1cccs1)=NO2 [Example 150, 8-(5-fluoro-2-methyl-benzenesulphonyl)-1-oxa-2,8-diaza-spiro[4,5]dec-2-ene-3-carboxylic acid (thiophen-2-ylmethyl)-amide] | 86
O=C(NCc1cccs1)C1=NOC2(CCN(C(=O)c3ccccc3Cl)CC2)C1 [Example 152, 8-(2-chloro-benzoyl)-1-oxa-2,8-diaza-spiro[4,5]dec-2-ene-3-carboxylic acid (thiophen-2-ylmethyl)-amide] | 56
CN(CCCNC(=O)C1=NOC2(CCN(S(=O)(=O)c3ccc(Cl)s3)CC2)C1)c1ccccc1 [Example 89] | 81
Cc1ccc(C(C)NC(=O)C2=NOC3(CCN(S(=O)(=O)c4ccc(C)cc4)CC3)C2)cc1 (centres unmarked) [Example 45, 8-(toluene-4-sulphonyl)-1-oxa-2,8-diaza-spiro[4,5]dec-2-ene-3-carboxylic acid (1-p-tolyl-ethyl)-amide] | 49
O=C(NC1CCCC1OCc1ccccc1)C1=NOC2(CCN(S(=O)(=O)c3cccc(C(F)(F)F)c3)CC2)C1 (centres unmarked) [Example 201, 8-(3-trifluoromethyl-benzenesulphonyl)-1-oxa-2,8-diaza-spiro[4,5]dec-2-ene-3-carboxylic acid (2-benzyloxy-cyclopentyl)-amide] | 61
O=C(NC1CCCC1OCc1ccccc1)C1=NOC2(CCN(S(=O)(=O)c3cccs3)CC2)C1 (centres unmarked) [Example 47, 8-(thiophene-2-sulphonyl)-1-oxa-2,8-diaza-spiro[4,5]dec-2-ene-3-carboxylic acid (2-benzyloxy-cyclopentyl)-amide] | 71
CN(C)S(=O)(=O)N1CCC2(CC1)CC(C(=O)N1CCN(Cc3ccc(C(C)(C)C)cc3)CC1)=NO2 [Example 189, 3-[4-(4-tert-butyl-benzyl)-piperazine-1-carbonyl]-1-oxa-2,8-diaza-spiro[4,5]dec-2-ene-8-sulphonic acid dimethylamide] | 69
COc1ccc(OC)c(CN(Cc2ccco2)C(=O)C2=NOC3(CCN(S(=O)(=O)c4ccc(F)cc4)CC3)C2)c1 [Example 160] | 75
O=C(NCc1cccs1)C1=NOC2(CCN(C(=O)c3cccc(Cl)c3F)CC2)C1 [Example 146, 8-(3-chloro-2-fluorobenzoyl)-1-oxa-2,8-diaza-spiro[4,5]dec-2-ene-3-carboxylic acid (thiophen-2-ylmethyl)-amide] | 67
CC(NC(=O)C1=NOC2(CCN(S(=O)(=O)c3cccs3)CC2)C1)c1ccccc1 (centres unmarked) [Example 8, 8-(thiophene-2-sulphonyl)-1-oxa-2,8-diaza-spiro[4,5]dec-2-ene-3-carboxylic acid (1-phenyl-ethyl)-amide] | 63
O=C(NCC1CC1)C1=NOC2(CCN(C(=O)c3ccc(SC(F)(F)F)cc3)CC2)C1 [Example 108, 8-(4-trifluoromethylsulphanyl-benzoyl)-1-oxa-2,8-diaza-spiro[4,5]dec-2-ene-3-carboxylic acid cyclopropylmethyl-amide] | 43
O=C(NCc1ccccc1)C1=NOC2(CCN(C(=O)c3ccc(F)c(Cl)c3)CC2)C1 [Example 205, 8-(3-chloro-4-fluorobenzoyl)-1-oxa-2,8-diaza-spiro[4,5]dec-2-ene-3-carboxylic acid benzylamide] | 53
O=C(C1=NOC2(CCN(S(=O)(=O)c3ccc(OC(F)(F)F)cc3)CC2)C1)N1CCN(CCCc2ccccc2)CC1 [Example 176, [4-(3-phenyl-propyl)-piperazin-l-yl]-[8-(4-trifluoromethoxy-benzenesulphonyl)-1-oxa-2,8-diaza-spiro [4,5]dec-2-en-3-yl]-methanone] | 76
CN1CCCC1CCNC(=O)C1=NOC2(CCN(S(=O)(=O)c3ccc(Cl)s3)CC2)C1 (centres unmarked) [Example 61, 8-(5-chloro-thiophene-2-sulphonyl)-1-oxa-2,8-diaza-spiro[4,5]dec-2-ene-3-carboxylic acid [2-(1-methyl-pyrrolidin-2-yl)-ethyl]-amide] | 79
